Assay results as given in US20070010671A1, “Novel quinazoline derivatives and methods of treatment related to the use thereof” (priority 2003, published 2007).

Target: MCH receptor (Homo sapiens, UniProt Q99705)
Assay: High throughput functional screening FLIPR/FDSS6000: inhibition of MCH-evoked intracellular Ca2+ changes
Assay type: cell-based
Details: class by percent of control at 10^-7 M or IC50
In short: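 Seed cells the day before, then load them with Fluo4-AM for one hour at 37° C and wash in HEPES-buffered HBSS, pH 7.4. Add compound for 3 min, then stimulate with 50 nM MCH. Monitor the calcium transient for 290 s.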

Row | Compound | class
1 | CN(C)c1nc(N[C@H]2CC[C@@H](NC(=S)Nc3cc(C(F)(F)F)ccc3F)CC2)nc2ccccc12 [compound 217] | 3 (Class 3: The value of percent of control at 10^−7 M was more than 60% or the value of IC50 was more than 200 nM.)
2 | CN(C)c1nc(N[C@H]2CC[C@@H](CNC(=O)NCc3ccc(Cl)cc3Cl)CC2)nc2ccccc12 [compound 478, N-(2,4-dichlorobenzyl)-N′-[(cis-4-{[4-(dimethylamino)quinazolin-2-yl]amino}cyclohexyl)methyl]urea] | 2 (Class 2: The value of percent of control at 10^−7 M was from 40% to 60% or the value of IC50 was from 50 nM to 200 nM.)
3 | COC(=O)c1cccc(NC(=S)N[C@H]2CC[C@@H](Nc3nc(N(C)C)c4ccccc4n3)CC2)c1 [compound 263] | 1 (Class 1: The value of percent of control at 10^−7 M was less than 40% or the value of IC50 was less than 50 nM.)
4 | CN(C)c1nc(N[C@H]2CC[C@@H](CNC(=O)Nc3cc([N+](=O)[O-])ccc3F)CC2)nc2ccccc12 [compound 498, N-[(cis-4-{[4-(dimethylamino)quinazolin-2-yl]amino}cyclohexyl)methyl]-N′-(2-fluoro-5-nitrophenyl)urea] | 2 (Class 2: The value of percent of control at 10^−7 M was from 40% to 60% or the value of IC50 was from 50 nM to 200 nM.)
5 | CCc1cccc(C(C)C)c1NC(=S)NC[C@H]1CC[C@@H](Nc2nc(N(C)C)c3ccccc3n2)CC1 [compound 597] | 2 (Class 2: The value of percent of control at 10^−7 M was from 40% to 60% or the value of IC50 was from 50 nM to 200 nM.)
6 | CN(C)c1nc(N[C@H]2CC[C@@H](CNC(=S)NCc3ccc(Cl)cc3)CC2)nc2ccccc12 [compound 695] | 3 (Class 3: The value of percent of control at 10^−7 M was more than 60% or the value of IC50 was more than 200 nM.)
7 | Cc1cc(Br)ccc1NC(=S)N[C@H]1CC[C@@H](Nc2nc(N(C)C)c3ccccc3n2)CC1 [compound 267] | 1 (Class 1: The value of percent of control at 10^−7 M was less than 40% or the value of IC50 was less than 50 nM.)
8 | CN(C)c1nc(N[C@H]2CC[C@@H](CNC(=S)Nc3cccc(Cl)c3Cl)CC2)nc2ccccc12 [compound 634] | 3 (Class 3: The value of percent of control at 10^−7 M was more than 60% or the value of IC50 was more than 200 nM.)
9 | CN(C)c1nc(N[C@H]2CC[C@@H](CNC(=S)Nc3ccccc3-c3ccccc3)CC2)nc2ccccc12 [compound 721] | 3 (Class 3: The value of percent of control at 10^−7 M was more than 60% or the value of IC50 was more than 200 nM.)
10 | N-(3,5-difluorobenzyl)-N′-[(cis-4-{[4-(dimethylamino)quinazolin-2-yl]amino}cyclohexyl)methyl]urea [compound 524] | 1 (Class 1: The value of percent of control at 10^−7 M was less than 40% or the value of IC50 was less than 50 nM.)
11 | CN(C)c1nc(N[C@H]2CC[C@@H](CNC(=O)Nc3cc(Cl)nc(Cl)c3)CC2)nc2ccccc12 [compound 773] | 3 (Class 3: The value of percent of control at 10^−7 M was more than 60% or the value of IC50 was more than 200 nM.)
12 | COC(=O)c1ccc(NC(=S)NC[C@H]2CC[C@@H](Nc3nc(N(C)C)c4ccccc4n3)CC2)cc1 [compound 702] | 3 (Class 3: The value of percent of control at 10^−7 M was more than 60% or the value of IC50 was more than 200 nM.)
13 | Cc1cc(Cl)cc(Cl)c1NC(=S)NC[C@H]1CC[C@@H](Nc2nc(N(C)C)c3ccccc3n2)CC1 [compound 782, N-(2,4-dichloro-6-methylphenyl)-N′-[(cis-4-{[4-(dimethylamino)quinazolin-2-yl]amino}cyclohexyl)methyl]thiourea] | 2 (Class 2: The value of percent of control at 10^−7 M was from 40% to 60% or the value of IC50 was from 50 nM to 200 nM.)
14 | CCc1ccc(NC(=O)NC[C@H]2CC[C@@H](Nc3nc(N(C)C)c4ccccc4n3)CC2)cc1 [compound 432, N-[(cis-4-{[4-(dimethylamino)quinazolin-2-yl]amino}cyclohexyl)methyl]-N′-(4-ethylphenyl)urea] | 2 (Class 2: The value of percent of control at 10^−7 M was from 40% to 60% or the value of IC50 was from 50 nM to 200 nM.)

Same assay, conditions: class by percent of control at 10^-7 M or by IC50; read-out: class

Row | Compound | IC50
15 | CN(C)c1nc(N[C@H]2CC[C@@H](CNC(=O)OCC(Cl)(Cl)Cl)CC2)nc2ccccc12 [compound 885] | > 200 nM
16 | CN(C)c1nc(N[C@H]2CC[C@@H](NC(=S)Nc3cc(C(F)(F)F)cc(C(F)(F)F)c3)CC2)nc2ccccc12 [compound 155] | > 200 nM

Continued, values first:

Row | IC50 | Compound
17 | > 200 nM | CN(C)c1nc(N[C@H]2CC[C@@H](NC(=S)NC(C)(C)C)CC2)nc2ccccc12 [compound 199]
18 | < 50 nM | CC(NC(=O)N[C@H]1CC[C@@H](Nc2nc(N(C)C)c3ccccc3n2)CC1)c1ccccc1 (relative stereo) [compound 65, N-(cis-4-{[4-(dimethylamino)quinazolin-2-yl]amino}cyclohexyl)-N′-(1-phenylethyl)urea]
19 | < 50 nM | CN(C)c1nc(N[C@H]2CC[C@@H](NC(=O)Nc3ccccc3Cl)CC2)nc2ccccc12 [compound 18, N-(2-chlorophenyl)-N′-(cis-4-{[4-(dimethylamino)quinazolin-2-yl]amino}cyclohexyl)urea]
20 | < 50 nM | Cc1cccc(C(C)C)c1NC(=O)N[C@H]1CC[C@@H](Nc2nc(N(C)C)c3ccccc3n2)CC1 [compound 102, N-(cis-4-{[4-(dimethylamino)quinazolin-2-yl]amino}cyclohexyl)-N′-(2-isopropyl-6-methylphenyl)urea]
21 | > 200 nM | CN(C)c1nc(N[C@H]2CC[C@@H](NC(=O)OCC3c4ccccc4-c4ccccc43)CC2)nc2ccccc12 [compound 864]
22 | > 200 nM | CN(C)c1nc(N[C@H]2CC[C@@H](NC(=O)Nc3ccc(Cl)cc3)CC2)nc2ccccc12 [compound 15]
23 | 50 to 200 nM | CN(C)c1nc(N[C@H]2CC[C@@H](NC(=O)Nc3cc(F)cc(F)c3)CC2)nc2ccccc12 [compound 125, N-(3,5-difluorophenyl)-N′-(cis-4-{[4-(dimethylamino)quinazolin-2-yl]amino}cyclohexyl)urea]

Same assay, conditions: class by percent of control at 10^−7 M or by IC50; read-out: class

Row | Compound | IC50
24 | CN(C)c1nc(N[C@H]2CC[C@@H](CNC(=O)c3ccc(OC(F)(F)F)cc3)C2)nc2ccccc12 [Example 1128, N-[((1R,3S)-3-{[4-(dimethylamino)quinazolin-2-yl]amino}cyclopentyl)methyl]-4-(trifluoromethoxy)benzamide] | > 200 nM
25 | CN(C)c1nc(N[C@H]2CC[C@@H](NC(=O)c3cccc(NC(=O)C4CCCC4)c3)CC2)nc2ccccc12 [Example 1203, 3-[(cyclopentylcarbonyl)amino]-N-(cis-4-{[4-(dimethylamino)quinazolin-2-yl]amino}cyclohexyl)benzamide] | < 50 nM

Other lines, results leading:

Row | IC50 | Compound
26 | < 50 nM | CN(C)c1nc(N[C@H]2CC[C@@H](NC(=O)CNc3cccc(F)c3)CC2)nc2ccccc12 [Example 1087, N-(cis-4-{[4-(dimethylamino)quinazolin-2-yl]amino}cyclohexyl)-N2-(3-fluorophenyl)glycinamide]
27 | < 50 nM | CN(C)c1nc(N[C@H]2CC[C@@H](C(=O)NCc3cccc4ccccc34)CC2)nc2ccccc12 [Example 1154]
28 | 50 to 200 nM | CN(C)c1nc(N[C@H]2CC[C@@H](NC(=O)C(O)c3ccc(Br)cc3)CC2)nc2ccccc12 (relative stereo) [Example 1107, 2-(4-bromophenyl)-N-(cis-4-{[4-(dimethylamino)quinazolin-2-yl]amino}cyclohexyl)-2-hydroxyacetamide]
